Article PMC11063903, “Engineering a human P2X2 receptor with altered ligand selectivity in yeast” (The Journal of Biological Chemistry, 2024)

How the values were obtained:
P2X2 F303Y = target: T1, P2X2 F303Y (Homo sapiens, UniProt Q9UBL9, F303Y); assay: Fast GCaMP-mScarletI assay in yeast, P2X2 F303Y; format: cell-based; details: site-saturation screen, 500 μM ATP, ± sd
T1 construct: expressed in transfected cells; host or cells: S. cerevisiae BY4741 background
T1 sequence (Q9UBL9 1-471 F303Y): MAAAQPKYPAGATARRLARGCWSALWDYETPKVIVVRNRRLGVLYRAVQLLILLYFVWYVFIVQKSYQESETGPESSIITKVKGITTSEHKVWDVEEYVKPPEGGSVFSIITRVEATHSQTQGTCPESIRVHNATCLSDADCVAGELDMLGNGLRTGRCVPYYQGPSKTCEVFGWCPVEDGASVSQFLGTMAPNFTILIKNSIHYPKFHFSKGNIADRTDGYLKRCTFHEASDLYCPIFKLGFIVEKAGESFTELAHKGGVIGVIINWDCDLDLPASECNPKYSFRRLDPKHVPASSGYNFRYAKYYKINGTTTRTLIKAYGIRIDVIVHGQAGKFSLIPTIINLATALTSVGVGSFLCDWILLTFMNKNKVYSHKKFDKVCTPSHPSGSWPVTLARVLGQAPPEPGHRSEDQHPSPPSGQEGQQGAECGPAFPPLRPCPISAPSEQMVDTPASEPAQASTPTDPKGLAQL

P2X2 F303L = target: T2, P2X2 F303L (Homo sapiens, UniProt Q9UBL9, F303L); assay: Site-saturation screen of ligand-binding domain with ATP, F303L; format: cell-based; details: 500 μM ATP, ± sd
T2 construct: expressed in transfected cells; host or cells: Saccharomyces cerevisiae BY4741 derivative, genome-integrated, galactose-inducible
From the text: The yeast P2X2 screening platform poses an opportunity to probe the structure-function of the ligand-binding domain in detail. The conserved P2X “NFR” motif at residues 300 to 302 is directly involved in bonding to the ATP triphosphate moiety ([41]), so we mutagenized residues at or near this motif (298–304), ultimately covering 133 variants (7 sites, 19 residues each). […] We compared our results to phylogenetic data based on a multiple sequence alignment (MSA) from a curated set of 419 related P2X homologs (Figs. 3B, and S5; Table S1).
Figure 3 Structure-function analysis of the ligand binding domain.A, heat map summarizing the screening data of ATP with seven site-saturation libraries surrounding the NFR-motif. B, sequence-logo plot of the mutagenized residues and percent identity scores as determined from MSA. C, homology model of P2X2 colored by sequence conservation as calculated from a multiple sequence alignment of 419 related P2X genes. Conservation is scored on a log scale where maroon is more conserved and blue is less conserved. D, ATP in the ligand-binding pocket of P2X2. […]
GCaMP assays were performed as follows. […] Cells were loaded onto a black, clear bottom microplate and imaged on a FlexStation3 plate reader. […] Fluorescence was measured with an excitation at 485 nm, and emission 525 nm. […] For strains with mScarlet, fluorescence was read with excitation 570 nm/emission 610 nm. […]

T2 sequence (Q9UBL9 whole entry F303L, the tested form may be a part): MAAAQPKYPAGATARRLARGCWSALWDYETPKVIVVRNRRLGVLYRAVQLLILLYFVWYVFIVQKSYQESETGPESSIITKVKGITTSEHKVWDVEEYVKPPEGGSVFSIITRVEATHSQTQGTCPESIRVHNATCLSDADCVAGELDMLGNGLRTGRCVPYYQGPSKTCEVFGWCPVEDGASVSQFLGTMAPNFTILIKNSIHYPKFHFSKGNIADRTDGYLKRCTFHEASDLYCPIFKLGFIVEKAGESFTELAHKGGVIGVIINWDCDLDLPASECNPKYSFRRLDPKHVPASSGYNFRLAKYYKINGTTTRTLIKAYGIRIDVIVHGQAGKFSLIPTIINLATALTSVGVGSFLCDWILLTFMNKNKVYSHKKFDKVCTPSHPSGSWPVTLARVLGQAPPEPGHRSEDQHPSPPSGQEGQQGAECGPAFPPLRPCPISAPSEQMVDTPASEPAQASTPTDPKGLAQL

Structure (SMILES): Nc1ncnc2c1ncn2[C@@H]1O[C@H](COP(=O)(O)OP(=O)(O)OP(=O)(O)O)[C@@H](O)[C@H]1O [ATP]
- signal, % of WT signaling (P2X2 F303Y): 113 ± 45%
- signal, % of WT signaling (P2X2 F303L): 108 ± 89%
